# From patent US8835648B2, “Hedgehog pathway antagonists and therapeutic applications thereof” (Siena Biotech S.p.A., priority 2009, dated 2014)
# What was measured:
# [1] = system: 293FlpIN/clone E-3 mock transfected cells; test: Bodipy-Cyclopamine specific binding curve, mock transfected cell line clone E-3; conditions: stable mock transfected cell line clone E-3
# [2] = biological target: T1, Smo receptor (Homo sapiens, UniProt Q99835); test: Bodipy-Cyclopamine specific binding curve, Smo-FLAG transfected cell line clone 3-5; conditions: stable Smo-FLAG transfected cell line clone 3-5
# T1 construct: expressed in transfected cells; template pCMV6-XL5-Smo, Origene cat; TC122724
# T1 sequence (Q99835 28-787): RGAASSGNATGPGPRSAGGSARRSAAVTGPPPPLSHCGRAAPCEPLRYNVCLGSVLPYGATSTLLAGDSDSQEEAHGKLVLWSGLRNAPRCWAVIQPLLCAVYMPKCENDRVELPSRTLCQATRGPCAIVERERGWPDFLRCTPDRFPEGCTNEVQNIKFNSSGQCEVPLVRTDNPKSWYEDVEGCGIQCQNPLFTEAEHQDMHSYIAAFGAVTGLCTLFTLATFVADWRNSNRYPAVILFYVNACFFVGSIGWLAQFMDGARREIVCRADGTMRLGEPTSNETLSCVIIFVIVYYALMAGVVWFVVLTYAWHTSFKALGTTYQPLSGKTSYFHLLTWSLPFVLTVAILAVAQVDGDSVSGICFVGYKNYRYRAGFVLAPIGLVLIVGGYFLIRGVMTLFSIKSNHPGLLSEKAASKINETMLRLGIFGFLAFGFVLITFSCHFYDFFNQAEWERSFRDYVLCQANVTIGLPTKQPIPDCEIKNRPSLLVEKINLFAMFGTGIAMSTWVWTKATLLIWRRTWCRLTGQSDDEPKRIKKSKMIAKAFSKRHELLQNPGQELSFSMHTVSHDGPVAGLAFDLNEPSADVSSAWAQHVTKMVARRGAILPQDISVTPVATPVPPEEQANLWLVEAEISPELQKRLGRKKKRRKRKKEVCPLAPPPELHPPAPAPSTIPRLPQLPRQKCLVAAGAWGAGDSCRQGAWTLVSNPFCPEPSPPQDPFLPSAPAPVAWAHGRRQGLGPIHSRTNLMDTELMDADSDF
smiles,measurement,setting,value
CC1=C2CC3C(CC=C4C[C@@H](O)CCC43C)C2CCC12O[C@@H]1CC(C)CN(CCNC(=O)CCCCCNC(=O)CCC3=[N+]4C(=Cc5c(C)cc(C)n5[B-]4(F)F)C=C3)C1C2C (some centres unmarked) [Bodipy-Cyclopamine],Kd,[1],115 nM
same,Kd,[2],44.3 nM
